Article PMC5481828, “Construction of a synthetic metabolic pathway for biosynthesis of the non-natural methionine precursor 2,4-dihydroxybutyric acid” (Nature Communications, 2017)

Legend:
Ec-LysC = Ec-LysC (Escherichia coli, UniProt P08660); conditions: 2 mM ATP, 5 mM MgCl2, 50 mM KCl, Hepes pH 7.5, 37 °C
Ms-Ssr = molecular target: T1, Ms-Ssr (Metallosphaera sedula, UniProt A4YGN0); test: NAD(P)H oxidation at […] nm; assay type: biochemical; conditions: NADPH 0.2 mM, Hepes pH 7.5, 50 mM KCl, 5 mM MgCl2, 37 °C; read-out: affinity
T1 construct: gene Msed_1424
T1 sequence (A4YGN0 1-360): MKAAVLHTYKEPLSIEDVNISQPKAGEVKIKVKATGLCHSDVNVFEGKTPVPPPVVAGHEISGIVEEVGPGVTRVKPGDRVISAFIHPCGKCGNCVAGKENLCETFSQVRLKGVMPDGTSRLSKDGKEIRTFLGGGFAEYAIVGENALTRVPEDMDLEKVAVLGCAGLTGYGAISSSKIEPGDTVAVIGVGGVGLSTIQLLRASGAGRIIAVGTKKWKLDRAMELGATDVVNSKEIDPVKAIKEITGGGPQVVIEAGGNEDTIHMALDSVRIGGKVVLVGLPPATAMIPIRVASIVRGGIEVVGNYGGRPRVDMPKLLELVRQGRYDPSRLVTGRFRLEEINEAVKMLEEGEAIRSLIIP

Mj-Asd = molecular target: T2, Mj-Asd (Methanocaldococcus jannaschii, UniProt Q57658); test: NADPH oxidation, substrate made in situ by malate kinase; assay type: biochemical; conditions: biosynthetic direction, 0.2 mM NADPH, 2 mM ATP, 20 mM malate, Hepes pH 7, 37 °C
T2 sequence (Q57658 1-354): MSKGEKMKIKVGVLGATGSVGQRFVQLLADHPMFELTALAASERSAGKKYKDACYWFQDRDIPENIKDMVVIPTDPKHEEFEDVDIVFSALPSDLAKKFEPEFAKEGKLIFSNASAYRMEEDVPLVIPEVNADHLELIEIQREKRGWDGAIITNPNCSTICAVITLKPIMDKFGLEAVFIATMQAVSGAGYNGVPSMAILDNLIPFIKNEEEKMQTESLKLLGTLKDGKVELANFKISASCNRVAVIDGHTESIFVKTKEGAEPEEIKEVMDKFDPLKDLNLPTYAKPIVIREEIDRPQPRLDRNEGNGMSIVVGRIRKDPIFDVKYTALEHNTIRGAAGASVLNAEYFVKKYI

Bs-Asd = Bs-Asd (Bacillus subtilis, UniProt Q04797, E218Q); test: as above; assay type: biochemical; conditions: biosynthetic direction, 0.2 mM NADPH, 2 mM ATP, 20 mM malate, Hepes pH 7, 37 °C
Bs-Asd, sequence (Q04797 whole entry E218Q): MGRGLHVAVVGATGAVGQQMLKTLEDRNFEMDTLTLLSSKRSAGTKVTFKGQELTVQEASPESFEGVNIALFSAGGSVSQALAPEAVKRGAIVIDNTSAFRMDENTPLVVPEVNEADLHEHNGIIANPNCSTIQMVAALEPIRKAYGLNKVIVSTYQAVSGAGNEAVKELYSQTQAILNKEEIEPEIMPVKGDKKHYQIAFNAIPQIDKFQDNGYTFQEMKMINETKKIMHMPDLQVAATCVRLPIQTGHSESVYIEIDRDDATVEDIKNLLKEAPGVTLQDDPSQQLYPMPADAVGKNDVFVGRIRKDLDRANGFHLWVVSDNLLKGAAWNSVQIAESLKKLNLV

Ec-LysC, sequence (P08660 whole entry): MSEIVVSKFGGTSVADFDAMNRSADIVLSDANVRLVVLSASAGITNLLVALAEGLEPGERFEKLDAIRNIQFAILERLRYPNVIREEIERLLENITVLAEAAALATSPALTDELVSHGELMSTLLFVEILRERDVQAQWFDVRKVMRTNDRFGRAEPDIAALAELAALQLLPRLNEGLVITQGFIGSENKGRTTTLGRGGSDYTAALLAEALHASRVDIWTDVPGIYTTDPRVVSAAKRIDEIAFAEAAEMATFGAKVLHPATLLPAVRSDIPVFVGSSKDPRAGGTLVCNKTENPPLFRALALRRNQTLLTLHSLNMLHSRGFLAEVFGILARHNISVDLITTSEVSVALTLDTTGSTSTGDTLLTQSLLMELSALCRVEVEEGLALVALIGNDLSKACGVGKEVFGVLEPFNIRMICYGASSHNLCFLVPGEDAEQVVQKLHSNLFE

N[C@@H](CC(=O)O)C(=O)O [(L)-aspartate]
Km (Ec-LysC): Catalytic efficiency (kcat/Km) of wild-type aspartate kinase

O=CC[C@H](O)C(=O)O [MSA, malate semialdehyde]
Km (Ms-Ssr): 1100 µM

O=C(C[C@H](O)C(=O)O)OP(=O)(O)O [malyl-P, malyl-4-phosphate]
NADPH oxidation, substrate made in situ by malate kinase (Mj-Asd): Enzymatic activities of wild-type Bs-Asd and Mj-Asd on malyl-P were approximately threefold lower
NADPH oxidation, substrate made in situ by malate kinase (Bs-Asd): Bs-Asd E218Q mutant enzyme, which displayed an almost eightfold increased activity on malyl-P
